Measurements from ChEMBL document CHEMBL5052855, “Method for predicting sensitivity of cancer cell to gpx4 inhibitor” (2021).
Calls of active or inactive are those of the source. The rule behind the calls is not given here.

Key:
[1] = Antiproliferative activity against ARID1A/1B proficient human OVISE cells after 7 days by Cell-Titer Glo assay; format: functional, cell-based; conditions: 168 h
[2] = system: SK-HEP1; assay: Antitumor activity against human SK-HEP1 cells xenografted BALB/c nu mouse assessed as decrease in tumor volume at 100 mg/kg/day, po measured on the 18th day; format: functional, organism-based; conditions: time 18.0 day

With `COC(=O)c1ccc([C@H]2c3[nH]c4ccccc4c3C[C@H](C(=O)OC)N2C(=O)CCl)cc1` as the molecule, how does the IC50 [1] read?
Its IC50 is < 3 nM.

With `Cc1onc(C(=O)N2CCN(C(c3ccc(Cl)cc3)c3ccc(Cl)cc3)CC2)c1[N+](=O)[O-]` as the molecule, how does the Activity [2] read?
Its Activity is “Active”.
